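Test compounds were applied to cells in 96-well plates for 48 hours at 5 doses. GI50 marks 50% less growth.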 The source made the active and inactive calls. Rule as the data show it: active = GI50 up to about 1.1 µM and inactive = higher.
How the values were obtained:
Assay in all cases: NCI tumour cell line growth inhibition, 48 h
786-0 = system: 786-0
A498 = system: A498
A549 = system: A549
ACHN = system: ACHN
CAKI-1 = system: CAKI-1
CCRF-CEM = system: CCRF-CEM
COLO 205 = system: COLO 205
DLD-1 = system: DLD-1
DMS-114 = system: DMS-114
DMS-273 = system: DMS-273
EKVX = system: EKVX
HCC 2998 = system: HCC 2998
HCT-116 = system: HCT-116
HCT-15 = system: HCT-15
HL-60 = system: HL-60
HOP-18 = system: HOP-18
HOP-62 = system: HOP-62
HOP-92 = system: HOP-92
HT-29 = system: HT-29
IGROV-1 = system: IGROV-1
K562 = system: K562
KM-20L2 = system: KM-20L2
KM12 = system: KM12
LXFL 529 = system: LXFL 529
M14 = system: M14
M19-MEL = system: M19-MEL
MOLT-4 = system: MOLT-4
Malme-3M = system: Malme-3M
NCI-H226 = system: NCI-H226
NCI-H23 = system: NCI-H23
NCI-H460 = system: NCI-H460
NCI-H522 = system: NCI-H522
OVCAR-4 = system: OVCAR-4
OVCAR-5 = system: OVCAR-5
OVCAR-8 = system: OVCAR-8
RPMI-8226 = system: RPMI-8226
RXF 393 = system: RXF 393
SF-268 = system: SF-268
SF-295 = system: SF-295
SF-539 = system: SF-539
SK-MEL-28 = system: SK-MEL-28
SK-MEL-2 = system: SK-MEL-2
SK-MEL-5 = system: SK-MEL-5
SK-OV-3 = system: SK-OV-3
SN12C = system: SN12C
SNB-19 = system: SNB-19
SNB-75 = system: SNB-75
SNB-78 = system: SNB-78
SR = system: SR
SW-620 = system: SW-620
TK-10 = system: TK-10
U-251 = system: U-251
UACC-257 = system: UACC-257
UACC-62 = system: UACC-62
UO-31 = system: UO-31
XF498 = system: XF498

In the case of COc1ccc([C@H]2CC(=O)N3CCCC3N2)cc1 (stereo partly specified), the GI50 (786-0) is reported as > 100 µM (inactive), the GI50 (A498) is reported as > 100 µM (inactive) and the GI50 (A549) is reported as > 100 µM (inactive). For the same compound, the GI50 (ACHN) was > 100 µM (inactive), the GI50 (CAKI-1) was > 100 µM (inactive) and the GI50 (CCRF-CEM) was > 100 µM (inactive). For the same compound, the GI50 (COLO 205) was > 100 µM (inactive), the GI50 (DLD-1) was > 100 µM (inactive) and the GI50 (DMS-114) was > 100 µM (inactive). For the same compound, the GI50 (DMS-273) was > 100 µM (inactive), the GI50 (EKVX) was > 100 µM (inactive) and the GI50 (HCC 2998) was > 100 µM (inactive). The GI50 (HCT-116) was > 100 µM (inactive), the GI50 (HCT-15) was greater than 100 µM and the GI50 (HL-60) was > 100 µM (inactive). The GI50 (HOP-18) was 43 µM (inactive), the GI50 (HOP-62) was > 100 µM (inactive) and the GI50 (HOP-92) was > 100 µM (inactive). The GI50 (HT-29) was > 100 µM (inactive), the GI50 (IGROV-1) was > 100 µM (inactive) and the GI50 (K562) was > 100 µM (inactive). The GI50 (KM-20L2) was > 100 µM (inactive), the GI50 (KM12) was > 100 µM (inactive) and the GI50 (LXFL 529) was > 100 µM (inactive). The GI50 (M14) was > 100 µM (inactive), the GI50 (M19-MEL) was > 100 µM (inactive) and the GI50 (MOLT-4) was > 100 µM (inactive). For the same compound, the GI50 (Malme-3M) was > 100 µM (inactive), the GI50 (NCI-H226) was > 100 µM (inactive) and the GI50 (NCI-H23) was > 100 µM (inactive). The GI50 (NCI-H460) was > 100 µM (inactive), the GI50 (NCI-H522) was > 100 µM (inactive) and the GI50 (OVCAR-4) was > 100 µM (inactive). The GI50 (OVCAR-5) was > 100 µM (inactive), the GI50 (OVCAR-8) was > 100 µM (inactive) and the GI50 (RPMI-8226) was > 100 µM (inactive). For the same compound, the GI50 (RXF 393) was > 100 µM (inactive), the GI50 (SF-268) was > 100 µM (inactive) and the GI50 (SF-295) was > 100 µM (inactive). The GI50 (SF-539) was > 100 µM (inactive), the GI50 (SK-MEL-28) was > 100 µM (inactive) and the GI50 (SK-MEL-2) was > 100 µM (inactive). The GI50 (SK-MEL-5) was > 100 µM (inactive), the GI50 (SK-OV-3) was > 100 µM (inactive) and the GI50 (SN12C) was > 100 µM (inactive). The GI50 (SNB-19) was > 100 µM (inactive), the GI50 (SNB-75) was > 100 µM (inactive) and the GI50 (SNB-78) was > 100 µM (inactive). For the same compound, the GI50 (SR) was > 100 µM (inactive), the GI50 (SW-620) was > 100 µM (inactive) and the GI50 (TK-10) was > 100 µM (inactive). For the same compound, the GI50 (U-251) was > 100 µM (inactive), the GI50 (UACC-257) was > 100 µM (inactive) and the GI50 (UACC-62) was > 100 µM (inactive). For the same compound, the GI50 (UO-31) was > 100 µM (inactive) and the GI50 (XF498) was > 100 µM (inactive).

Reference: ChEMBL document CHEMBL1201862, “PubChem BioAssay data set” (2004)
